Source: ChEMBL document CHEMBL3132794, “Imidazolium salts as antifungal agents: activity against emerging yeast pathogens, without human leukocyte toxicity” (Medchemcomm, 2013)
Converted amounts (≈) assume the structure as drawn.

Experiments:
[1] = Toxicity against human Leukocyte cells assessed induction of structural damage by microscopy; assay type: cell-based
[2] = Toxicity against human Leukocyte cells assessed as reduction in cell viability by trypan blue exclusion assay; assay type: cell-based
[3] = Genotoxicity in human Leukocyte cells assessed as induction of DNA single strand breaks by single gel electrophoresis based alkaline comet assay; assay type: toxicity, cell-based
Nakaseomyces glabratus [4] = assay: Antifungal activity against Candida glabrata clinical isolates by broth microdilution method; assay type: functional
Candida tropicalis [5] = assay: Antifungal activity against Candida tropicalis clinical isolates by broth microdilution method; assay type: functional
Trichosporon asahii [6] = assay: Antifungal activity against Trichosporon asahii clinical isolates by broth microdilution method; assay type: functional
Candida parapsilosis [7] = assay: Antifungal activity against Candida parapsilosis clinical isolates by broth microdilution method; assay type: functional; conditions: Lodderomyces parapsilosis
Nakaseomyces glabratus [8] = assay: Inhibition of ergosterol biosynthesis in Candida glabrata clinical isolates assessed as reduction in mean cellular ergosterol content by spectrophotometry; assay type: functional
Candida tropicalis [9] = assay: Inhibition of ergosterol biosynthesis in Candida tropicalis clinical isolates assessed as reduction in mean cellular ergosterol content by spectrophotometry; assay type: functional
Candida parapsilosis [10] = assay: Inhibition of ergosterol biosynthesis in Candida parapsilosis clinical isolates assessed as reduction in mean cellular ergosterol content by spectrophotometry; assay type: functional
Trichosporon asahii [11] = assay: Inhibition of ergosterol biosynthesis in Trichosporon asahii clinical isolates assessed as reduction in mean cellular ergosterol content by spectrophotometry; assay type: functional

| Structure (SMILES) | Activity [1] | Activity [2] | Activity [3] | MIC (Nakaseomyces glabratus [4]) | MIC50 (Nakaseomyces glabratus [4]) | MIC (Candida tropicalis [5]) | MIC50 (Candida tropicalis [5]) | MIC (Trichosporon asahii [6]) | MIC50 (Trichosporon asahii [6]) | MIC (Candida parapsilosis [7]) | MIC50 (Candida parapsilosis [7]) | inhibition (INH) (Nakaseomyces glabratus [8]) | inhibition (INH) (Candida tropicalis [9]) | inhibition (INH) (Candida parapsilosis [10]) | inhibition (INH) (Trichosporon asahii [11]) |
| --- | --- | --- | --- | --- | --- | --- | --- | --- | --- | --- | --- | --- | --- | --- | --- |
| CCCCCCCCCCn1cc[n+](C)c1.[Cl-] | Non-toxic | Non-toxic | Non-toxic | 7.8 µg/mL | 15.6 µg/mL | 0.9 µg/mL | 1.9 µg/mL | 7.8 µg/mL | 31.2 µg/mL | 1.9 µg/mL | 7.8 µg/mL |  |  |  |  |
| CCCCCCCCCCCCCCCCn1cc[n+](C)c1.F[P-](F)(F)(F)(F)F | Non-toxic | Non-toxic | Non-toxic | 1.9 µg/mL | 3.9 µg/mL | 0.9 µg/mL | 1.9 µg/mL | 15.6 µg/mL | 15.6 µg/mL | 0.9 µg/mL | 7.8 µg/mL |  |  |  |  |
| CCCCCCCCCCn1cc[n+](C)c1.CS(=O)(=O)[O-] | Non-toxic | Non-toxic | Non-toxic | 15.6 µg/mL | 31.2 µg/mL | 1.9 µg/mL | 1.9 µg/mL | 31.2 µg/mL | 62.5 µg/mL | 1.9 µg/mL | 7.8 µg/mL |  |  |  |  |
| CCCCCCCCCCCCCCCCn1cc[n+](C)c1.F[B-](F)(F)F | Non-toxic | Non-toxic | Non-toxic | 0.9 µg/mL | 0.9 µg/mL | 0.9 µg/mL | 0.9 µg/mL | 1.95 µg/mL | 3.9 µg/mL | 0.4 µg/mL | 3.9 µg/mL | 33% | 33% | 33% | 33% |
| CCCCCCCCCCCCCCn1cc[n+](C)c1.O=S(=O)([N-]S(=O)(=O)C(F)(F)F)C(F)(F)F | Non-toxic | Non-toxic | Non-toxic | 3.9 µg/mL | 15.6 µg/mL | 0.9 µg/mL | 0.9 µg/mL | 31.2 µg/mL | 62.5 µg/mL | 0.9 µg/mL | 0.9 µg/mL |  |  |  |  |
| CCCCCCCCCCCCCCCCn1cc[n+](C)c1.[Cl-] | Non-toxic | Non-toxic | Non-toxic | 0.9 µg/mL | 0.9 µg/mL | 0.9 µg/mL | 0.9 µg/mL | 0.9 µg/mL | 0.9 µg/mL | 0.9 µg/mL | 0.9 µg/mL |  |  |  |  |
| OC(Cn1cncn1)(Cn1cncn1)c1ccc(F)cc1F [FLUCONAZOLE] |  |  |  | 4 µg/mL (≈ 13.1 µM) | 8 µg/mL (≈ 26.1 µM) | 2 µg/mL (≈ 6.53 µM) | 8 µg/mL (≈ 26.1 µM) | 4 µg/mL (≈ 13.1 µM) | 8 µg/mL (≈ 26.1 µM) | 1 µg/mL (≈ 3.27 µM) | 1 µg/mL (≈ 3.27 µM) |  |  |  |  |
| CC(=O)N1CCN(c2ccc(OCC3COC(Cn4ccnc4)(c4ccc(Cl)cc4Cl)O3)cc2)CC1 (stereo unspecified) [KETOCONAZOLE] |  |  |  | 0.5 µg/mL (≈ 0.941 µM) | 4 µg/mL (≈ 7.53 µM) | 0.25 µg/mL (≈ 0.47 µM) | 4 µg/mL (≈ 7.53 µM) | 0.25 µg/mL (≈ 0.47 µM) | 4 µg/mL (≈ 7.53 µM) | 0.125 µg/mL (≈ 0.235 µM) | 1 µg/mL (≈ 1.88 µM) |  |  |  |  |
